Source: US10894784B2, “Heteroarylbenzimidazole compounds” (BAYER PHARMA AKTIENGESELLSCHAFT, priority 2015, dated 2021)

Target: TBK1 (Homo sapiens (Human), UniProt Q9UHD2)
Test: TBK1 low ATP kinase assay (in vitro assay 1)
Type: biochemical
Details: in vitro assay 1, read-out: TBK1 low ATP kinase assay IC50

Sequence of TBK1 (Q9UHD2 whole entry): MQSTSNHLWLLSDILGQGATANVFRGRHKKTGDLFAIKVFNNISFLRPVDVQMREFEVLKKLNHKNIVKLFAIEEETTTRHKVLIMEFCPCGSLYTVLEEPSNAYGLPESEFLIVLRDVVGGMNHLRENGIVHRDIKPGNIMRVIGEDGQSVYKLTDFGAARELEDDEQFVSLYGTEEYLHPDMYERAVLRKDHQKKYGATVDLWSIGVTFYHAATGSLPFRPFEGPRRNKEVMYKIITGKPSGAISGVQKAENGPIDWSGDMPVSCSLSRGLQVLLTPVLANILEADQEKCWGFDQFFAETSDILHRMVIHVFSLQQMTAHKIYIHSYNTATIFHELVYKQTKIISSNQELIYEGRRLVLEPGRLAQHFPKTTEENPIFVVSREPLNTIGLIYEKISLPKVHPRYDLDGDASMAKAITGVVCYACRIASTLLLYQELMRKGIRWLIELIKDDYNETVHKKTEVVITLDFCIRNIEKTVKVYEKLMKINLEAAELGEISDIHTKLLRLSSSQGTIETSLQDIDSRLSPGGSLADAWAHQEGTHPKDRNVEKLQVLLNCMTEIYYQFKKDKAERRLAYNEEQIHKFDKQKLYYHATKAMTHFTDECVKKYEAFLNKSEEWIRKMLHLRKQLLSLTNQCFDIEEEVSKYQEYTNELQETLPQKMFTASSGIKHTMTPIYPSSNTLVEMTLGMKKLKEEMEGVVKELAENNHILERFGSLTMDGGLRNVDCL

IC50 [nM] | Compound
14 | Cc1cc(-c2ccc3nc(Nc4cc(C(C)N5CCN(C(=O)C6CC6)CC5)ccn4)[nH]c3c2)ncn1 (single isomer, unassigned) [Example 30.03.03.B, cyclopropyl{4-[(1S or 1R)-1-(2-{[6-(6-methylpyrimidin-4-yl)-1H-benzimidazol-2-yl]amino}pyridin-4-yl)ethyl]piperazin-1-yl}methanone]
13 | O=C(C1CC1)N1CCN(Cc2ccnc(Nc3nc4ccc(-c5cc(OCC6(C(F)(F)F)CC6)ncn5)cc4[nH]3)c2)CC1 [Example 158.03, cyclopropyl{4-[(2-{[6-(6-{[1-(trifluoromethyl)cyclopropyl]methoxy}pyrimidin-4-yl)-1H-benzimidazol-2-yl]amino}pyridin-4-yl)methyl]piperazin-1-yl}methanone]
9.2 | COc1c(NCC2CC2)ncnc1-c1ccc2nc(Nc3cc(CN4CCN(C(=O)OC(C)(C)C)CC4)ccn3)[nH]c2c1 [Example 109.01.01, tert-butyl 4-({2-[(6-{6-[(cyclopropylmethyl)amino]-5-methoxypyrimidin-4-yl}-1H-benzimidazol-2-yl)amino]pyridin-4-yl}methyl)piperazine-1-carboxylate]
0.73 | CC(c1ccnc(Nc2nc3ccc(-c4cnn(CC5CC5(F)F)c4)c(Cl)c3[nH]2)c1)N1CCN(C(=O)C2CC2)CC1 (single isomer, unassigned) [Example 70.02, {4-[(1R or 1S)-1-(2-{[7-chloro-6-(1-{[(1RS)-2,2-difluorocyclopropyl]methyl}-1H-pyrazol-4-yl)-1H-benzimidazol-2-yl]amino}pyridin-4-yl)ethyl]piperazin-1-yl}(cyclopropyl)methanone]
333 | COc1cnccc1-c1ccc2nc(Nc3cc(CN4CCN(C(=O)C5CC5)CC4)ccn3)[nH]c2c1OCC(C)C [Example 50.02, cyclopropyl{4-[(2-{[6-(3-methoxypyridin-4-yl)-7-(2-methylpropoxy)-1H-benzimidazol-2-yl]amino}pyridin-4-yl)methyl]piperazin-1-yl}methanone]
2.3 | CC(c1ccnc(Nc2nc3ccc(-c4cnn(CC(F)F)c4)cc3[nH]2)c1)N1CCN(C(=O)CC(F)(F)F)CC1 (single isomer, unassigned) [Example 87.01, 1-(4-{(1R or 1S)-1-[2-({6-[1-(2,2-difluoroethyl)-1H-pyrazol-4-yl]-1H-benzimidazol-2-yl}amino)pyridin-4-yl]ethyl}piperazin-1-yl)-3,3,3-trifluoropropan-1-one]
13 | CCOc1nccc(-c2ccc3nc(Nc4cc(CN5CCN(C(=O)CC(F)(F)F)CC5)ccn4)[nH]c3c2)n1 [Example 26.01.03, 1-{4-[(2-{[6-(2-ethoxypyrimidin-4-yl)-1H-benzimidazol-2-yl]amino}pyridin-4-yl)methyl]piperazin-1-yl}-3,3,3-trifluoropropan-1-one]
35 | CCOc1ncnc(-c2ccc3nc(Nc4cc(CN5CCN(C(=O)CC(F)(F)F)CC5)ccn4)[nH]c3c2)c1OC [Example 167.02, 1-{4-[(2-{[6-(6-ethoxy-5-methoxypyrimidin-4-yl)-1H-benzimidazol-2-yl]amino}pyridin-4-yl)methyl]piperazin-1-yl}-3,3,3-trifluoropropan-1-one]
60.9 | COc1cncnc1-c1ccc2nc(Nc3cc(CN4CCN(S(=O)(=O)C5CCCCC5)CC4)ccn3)[nH]c2c1 [Example 35.01.13, N-(4-{[4-(cyclohexylsulfonyl)piperazin-1-yl]methyl}pyridin-2-yl)-6-(5-methoxypyrimidin-4-yl)-1H-benzimidazol-2-amine]
310 | CC(C)(C)OC(=O)N1CCN(Cc2ccnc(Nc3nc4ccc(-c5cc(OCC6CCC6)ncn5)cc4[nH]3)c2)CC1 [Example 159.01, tert-butyl 4-{[2-({6-[6-(cyclobutylmethoxy)pyrimidin-4-yl]-1H-benzimidazol-2-yl}amino)pyridin-4-yl]methyl}piperazine-1-carboxylate]
384 | COc1cnc(C)cc1-c1ccc2nc(Nc3cc(CN4CCN(C(=O)C5CCC5)CC4)ccn3)[nH]c2c1 [Example 07.03, cyclobutyl{4-[(2-{[6-(5-methoxy-2-methylpyridin-4-yl)-1H-benzimidazol-2-yl]amino}pyridin-4-yl)methyl]piperazin-1-yl}methanone]
2240 | O=C(C1CC1)N1CCN(Cc2ccnc(Nc3nc4ccc(-c5cnc(C6CC6)nc5)cc4[nH]3)c2)CC1 [Example 45.04.01, cyclopropyl{4-[(2-{[6-(2-cyclopropylpyrimidin-5-yl)-1H-benzimidazol-2-yl]amino}pyridin-4-yl)methyl]piperazin-1-yl}methanone]
0.76 | CC(c1ccnc(Nc2nc3ccc(-c4cc(N5CCC5)ncn4)cc3[nH]2)c1)N1CCN(C(=O)CC(F)(F)F)CC1 (single isomer, unassigned) [Example 115.02, 1-(4-{(1R or 1S)-1-[2-({6-[6-(azetidin-1-yl)pyrimidin-4-yl]-1H-benzimidazol-2-yl}amino)pyridin-4-yl]ethyl}piperazin-1-yl)-3,3,3-trifluoropropan-1-one]
53 | Cc1cc(-c2ccc3nc(Nc4cc(CN5CCN(C(=O)OC(C)(C)C)CC5)ccn4)[nH]c3c2)cc(C#N)n1 [Example 136.01, tert-butyl 4-[(2-{[6-(2-cyano-6-methylpyridin-4-yl)-1H-benzimidazol-2-yl]amino}pyridin-4-yl)methyl]piperazine-1-carboxylate]
13.8 | Cc1noc(-c2ccc3nc(Nc4cc(C(C)N5CCN(C(=O)C6CC6)CC5)ccn4)[nH]c3c2)n1 (single isomer, unassigned) [Example 16.06.03.A, cyclopropyl{4-[(1R or 1S)-1-(2-{[6-(3-methyl-1,2,4-oxadiazol-5-yl)-1H-benzimidazol-2-yl]amino}pyridin-4-yl)ethyl]piperazin-1-yl}methanone]
2 | CCNc1cc(-c2ccc3nc(Nc4cc(CN5CCN(C(=O)CC(F)(F)F)CC5)ccn4)[nH]c3c2)ncn1 [Example 149.02, 1-(4-{[2-({6-[6-(ethylamino)pyrimidin-4-yl]-1H-benzimidazol-2-yl}amino)pyridin-4-yl]methyl}piperazin-1-yl)-3,3,3-trifluoropropan-1-one]
0.62 | CC(c1ccnc(Nc2nc3ccc(-c4cc(N5CCC5)ncn4)cc3[nH]2)c1)N1CCN(C(=O)C2CC2)CC1 (single isomer, unassigned) [Example 115.03, (4-{(1R or 1S)-1-[2-({6-[6-(azetidin-1-yl)pyrimidin-4-yl]-1H-benzimidazol-2-yl}amino)pyridin-4-yl]ethyl}piperazin-1-yl)(cyclopropyl)methanone]
1590 | Cc1ncc(C)c(-c2ccc3nc(Nc4cc(CN5CCN(C(=O)CC(F)(F)F)CC5)ccn4)[nH]c3c2)n1 [Example 33.02, 1-{4-[(2-{[6-(2,5-dimethylpyrimidin-4-yl)-1H-benzimidazol-2-yl]amino}pyridin-4-yl)methyl]piperazin-1-yl}-3,3,3-trifluoropropan-1-one]
680 | Cc1noc(-c2ccc3nc(Nc4cc(CN5CCN(c6ccccc6F)CC5)ccn4)[nH]c3c2)n1 [Example 101.02, N-(4-{[4-(2-fluorophenyl)piperazin-1-yl]methyl}pyridin-2-yl)-6-(3-methyl-1,2,4-oxadiazol-5-yl)-1H-benzimidazol-2-amine]
24.3 | CCS(=O)(=O)N1CCN(Cc2ccnc(Nc3nc4ccc(-c5ncncc5OC)cc4[nH]3)c2)CC1 [Example 35.01.08, N-(4-{[4-(ethylsulfonyl)piperazin-1-yl]methyl}pyridin-2-yl)-6-(5-methoxypyrimidin-4-yl)-1H-benzimidazol-2-amine]
10 | COc1cnccc1-c1ccc2nc(Nc3cc(CN4CCN(C(=O)C5(C(F)(F)F)CC5)CC4)ccn3)[nH]c2c1 [Example 04.07, {4-[(2-{[6-(3-methoxypyridin-4-yl)-1H-benzimidazol-2-yl]amino}pyridin-4-yl)methyl]piperazin-1-yl}[1-(trifluoromethyl)cyclopropyl]methanone]
1830 | CN(C)c1nccnc1-c1ccc2nc(Nc3cc(CN4CCN(C(=O)CC(F)(F)F)CC4)ccn3)[nH]c2c1 [Example 196.02, 1-(4-{[2-({6-[3-(dimethylamino)pyrazin-2-yl]-1H-benzimidazol-2-yl}amino)pyridin-4-yl]methyl}piperazin-1-yl)-3,3,3-trifluoropropan-1-one]
132 | CCOc1c(-c2cnn(CC)c2)ccc2nc(Nc3cc(CN4CCN(C(=O)CC(F)(F)F)CC4)ccn3)[nH]c12 [Example 53.01, 1-{4-[(2-{[7-ethoxy-6-(1-ethyl-1H-pyrazol-4-yl)-1H-benzimidazol-2-yl]amino}pyridin-4-yl)methyl]piperazin-1-yl}-3,3,3-trifluoropropan-1-one]
3790 | Cc1ncc(-c2ccc3nc(Nc4cc(CN5CCN(C(=O)CC(F)(F)F)CC5)ccn4)[nH]c3c2)cn1 [Example 45.03.01, 3,3,3-trifluoro-1-{4-[(2-{[6-(2-methylpyrimidin-5-yl)-1H-benzimidazol-2-yl]amino}pyridin-4-yl)methyl]piperazin-1-yl}propan-1-one]
1.1 | CC(c1ccnc(Nc2nc3ccc(-c4cnn(CC5CC5)c4)c(Cl)c3[nH]2)c1)N1CCN(C(=O)C2CC2)CC1 (single isomer, unassigned) [Example 122.03, (4-{(1R or 1S)-1-[2-({7-chloro-6-[1-(cyclopropylmethyl)-1H-pyrazol-4-yl]-1H-benzimidazol-2-yl}amino)pyridin-4-yl]ethyl}piperazin-1-yl)(cyclopropyl)methanone]
52.7 | Cn1cc(-c2ccc3nc(Nc4cc(CN5CCN(C(=O)C6CC6)CC5)ccn4)[nH]c3c2)cn1 [Example 37.03, cyclopropyl{4-[(2-{[6-(1-methyl-1H-pyrazol-4-yl)-1H-benzimidazol-2-yl]amino}pyridin-4-yl)methyl]piperazin-1-yl}methanone]
7.1 | 1-(4-{(1R or 1S)-1-[2-({6-[1-(cyclopentylmethyl)-1H-pyrazol-4-yl]-1H-benzimidazol-2-yl}amino)pyridin-4-yl]ethyl}piperazin-1-yl)-3,3,3-trifluoropropan-1-one [Example 71.02]
